Laboratory results taken from US20250236614A1, “BICYCLIC TETRAHYDROAZEPINE DERIVATIVES” (Hoffmann-La Roche Inc., priority 2022, published 2025).
Like-named read-outs stand apart in the source and are kept apart here.

Columns and labels:
[1] = target: T1, hDGKzeta(1-928)-N-His (DGKZ) (Homo sapiens, UniProt Q13574); assay: In vitro DGK inhibition assay (ADP-Glo, in house), DGK zeta; assay type: biochemical; details: isomer A; 2 nM DGK ζ, 50 μM ATP, 125 μM DLG in liposomes, 1 hour reaction; read-out: DGKzeta ADP Glo assay IC50
T1 construct: hDGKzeta(1-928)-N-His; His (N)
T1 sequence (Q13574 whole entry): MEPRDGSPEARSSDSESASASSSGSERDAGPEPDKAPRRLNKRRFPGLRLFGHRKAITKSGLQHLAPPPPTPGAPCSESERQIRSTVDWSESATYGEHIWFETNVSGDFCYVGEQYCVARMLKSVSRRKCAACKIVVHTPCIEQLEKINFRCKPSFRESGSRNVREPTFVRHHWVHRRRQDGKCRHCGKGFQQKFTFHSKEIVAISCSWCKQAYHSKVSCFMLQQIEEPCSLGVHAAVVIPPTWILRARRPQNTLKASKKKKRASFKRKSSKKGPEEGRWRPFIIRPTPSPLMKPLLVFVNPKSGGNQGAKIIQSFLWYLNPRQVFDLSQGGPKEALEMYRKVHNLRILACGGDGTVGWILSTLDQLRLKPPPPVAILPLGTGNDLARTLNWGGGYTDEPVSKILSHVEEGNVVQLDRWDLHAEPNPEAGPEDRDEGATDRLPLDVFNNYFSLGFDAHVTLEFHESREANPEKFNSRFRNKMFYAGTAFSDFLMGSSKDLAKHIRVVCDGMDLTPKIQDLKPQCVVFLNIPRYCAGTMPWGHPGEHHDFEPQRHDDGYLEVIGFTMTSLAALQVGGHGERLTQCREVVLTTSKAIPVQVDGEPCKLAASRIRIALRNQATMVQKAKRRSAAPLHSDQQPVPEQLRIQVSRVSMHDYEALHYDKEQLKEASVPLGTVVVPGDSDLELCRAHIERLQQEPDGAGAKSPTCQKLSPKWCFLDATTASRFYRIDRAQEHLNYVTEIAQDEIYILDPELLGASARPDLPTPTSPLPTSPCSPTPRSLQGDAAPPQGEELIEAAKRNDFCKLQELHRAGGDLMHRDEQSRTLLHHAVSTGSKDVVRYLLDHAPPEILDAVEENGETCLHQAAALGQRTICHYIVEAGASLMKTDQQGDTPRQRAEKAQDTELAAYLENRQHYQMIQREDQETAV
Description: (§1) DGK α and ζ kinase use ATP to phosphorylate the substrate 1,2-dilauroyl-sn-glycerol (DLG, incorporated in the liposomes). ATP is converted to ADP as a result of this enzymatic reaction.
(§2) After the kinase reaction, an ATP-depletion reagent is added to terminate the kinase reaction and deplete any remaining ATP, leaving only ADP. Second, a detection reagent is added to simultaneously convert ADP to ATP and allow the newly synthesized ATP to be converted to light using a coupled luciferase/luciferin reaction.
(§3) Full length DGKA and Z were expressed in Sf21 insect cells by infecting the cells with the baculovirus stock at MOI of 2. Purification of both enzymes was performed as previously described by Takahashi et al., PeerJ, 2018 (Takahashi, D.; Sakane, F. Expression and purification of human diacylglycerolkinase alpha from baculovirus-infected insect cells for structural studies. PeerJ2018, 6, No. e5449).
(§4) A concentrated liposome solution was prepared in assay buffer without DTT and BSA: 2 mM of DLG in 21 mM of total liposome (2 mM DLG/8 mM PS/11 mM PC). The reaction mixtures contain the assay buffer with a final DLG concentration of 125 μM ATP concentrations of 25 μM (for DGKA assay) or 50 μM (for DGKZ assay). The reactions were started by addition of DGK α and ζ kinases at 4 nM and 2 nM final concentrations, respectively. After 1 hour reaction, the amount of ADP formed was detected with the ADP-Glo kinase assay (Promega) according to the manufacturer instructions. Compounds were added in 11I-points dose response, starting at 10 mM, 1:3 dilutions, with a final DMSO concentration of […]. The multidrop combi was used as a liquid handler and luminescence was read with 0.5 s by the envision reader (PE).

[2] = target: T2, hDGKalpha(1-735)-N-His (DGKA) (Homo sapiens, UniProt P23743); assay: In vitro DGK inhibition assay (ADP-Glo, in house), DGK alpha; assay type: biochemical; details: isomer A; 4 nM DGK α, 25 μM ATP, 125 μM DLG in liposomes, 1 hour reaction; read-out: DGKalpha ADP Glo assay IC50
T2 construct: hDGKalpha(1-735)-N-His; His (N)
T2 sequence (P23743 whole entry): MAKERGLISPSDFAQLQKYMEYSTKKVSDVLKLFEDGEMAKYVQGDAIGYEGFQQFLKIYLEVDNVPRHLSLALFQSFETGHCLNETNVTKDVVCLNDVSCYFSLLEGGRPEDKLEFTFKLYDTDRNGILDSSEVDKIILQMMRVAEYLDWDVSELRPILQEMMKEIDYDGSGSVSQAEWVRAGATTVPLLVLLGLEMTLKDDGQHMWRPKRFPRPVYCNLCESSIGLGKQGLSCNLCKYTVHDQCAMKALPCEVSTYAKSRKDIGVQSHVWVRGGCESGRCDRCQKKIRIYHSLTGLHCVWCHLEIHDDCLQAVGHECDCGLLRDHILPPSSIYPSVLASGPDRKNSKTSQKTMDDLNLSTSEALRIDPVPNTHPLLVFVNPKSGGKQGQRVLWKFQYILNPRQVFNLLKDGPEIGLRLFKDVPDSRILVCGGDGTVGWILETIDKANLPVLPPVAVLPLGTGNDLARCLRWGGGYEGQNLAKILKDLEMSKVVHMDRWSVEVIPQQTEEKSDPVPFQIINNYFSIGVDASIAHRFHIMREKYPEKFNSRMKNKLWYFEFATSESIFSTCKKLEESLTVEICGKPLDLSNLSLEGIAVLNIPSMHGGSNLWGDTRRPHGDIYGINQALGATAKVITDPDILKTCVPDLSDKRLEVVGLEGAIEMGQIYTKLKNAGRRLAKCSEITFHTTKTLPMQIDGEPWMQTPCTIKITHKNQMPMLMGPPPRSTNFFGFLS
Description: as §1, §2, §3, §4

primary human T-cells = assay: IL2 secretion measurements in CD3-stimulated T-cells; assay type: cell-based; details: isomer A; for EC50: CD3 antibody-stimulated T-cells, IL2 in supernatant after 24 hours, read-out: Tcell IL2 CD3 EC50; for Emax: read-out: Emax IL2 (% activation)
Description: As readouts for T-cell activation, IL2 secretion after 24 hours and proliferation after 5 days was measured. Increases in IL2 secretion and proliferation upon compound treatment were assessed as the % of the maximum of reference compound A1. WO 2016/139181 discloses reference compound A1 as example 70. As a counter screen and to make sure that no unwanted TCR-independent activation was triggered, PBS conditions were run for all compounds.
Expanded primary human T-cells were thawed and cultured in RPMI 1640 (Gibco, #61870-010)+5% human serum (HS, Sigma, #H3667)+1 mM Sodium Pyruvate (Gibco, #11360-039)+50 μM 2-mercaptoethanol (Gibco, #31350-010) and lx Pen-Strep (Life Technologies, #15140122) medium at density of 2 Mio/ml for 3 hours in 5% CO2, 37° C. and 95% humidity. For coating of plates, […] or PBS++ with CD3 antibody (concentration depending on donor and determined by CD3 titrations) was added 100 μl/well to Poly-D Lysine coated 96-well plates. Plates were sealed and incubated at room temperature for 3 hours on a table-top rocking platform. After incubation, plates were washed once with PBS−− and filled with 40 μl/well culture medium only. Compounds were then added (see next section) to medium only plates. After 3 hours of culturing the T-cells, cells were filtered through a cell strainer (Miltenyi Biotech, #130-041-407), counted again and concentration was adjusted to 1.25 Mio/ml.
Cells were then seeded 80 μl/well to the 40 μl/well including dispensed compounds according to plate layout. By adding cells, compounds were further diluted 1:3, and resulting in 100k cells/120 μl/well. After 24 hours 40 μl of supernatant was collected carefully from the top while not disturbing the cells and transferred into a round bottom 96 well plate. Collected and frozen supernatant was used for detection of IL2 using the IL-2 Human ProQuantum Immunoassay Kit (Invitrogen) or using the Human IL-2 ELISA Kit (Thermo Fisher).
Compounds were added in a 5 or 6 pt dose response with the Tecan D300e Digital Dispenser, all conditions 3 times more concentrated than the end-concentration, since cells are added afterwards (80 μl cells to 40 μl prepared medium with treatment). The DR was starting at 20 μM or 10 μM final top concentration and a dilution factor of 3.333. The positive control was the reference compound A1 that was added in a dose response as well, additionally to 3 wells of only 20 μM representing the positive stimulator control. All wells were normalized with DMSO to a final concentration of 0.6% (0.2% end-concentration).
The immunoassay is done following the manufacturer's manual (Invitrogen, #A35603).
Additional information: For the immunoassay, MicroAmp™ EnduraPlate™ Optical 384-Well plates are used. Frozen supernatant is thawed and centrifuged for 5 minutes at 1000×g, both steps at 4° C. After centrifugation, required sample amount is taken from the top, and in a separate LightCycler V-bottom plate (working plate) diluted with assay dilution buffer, dilution factor depending on the PBS or CD3 condition but at least 1:3. IL-2 standard and blanks are prepared in the same V-bottom plate, standard with a range of […] (extended version). After preparation, […] of sample dilutions or standard/blanks are transferred to the optical 384-well plate (assay plate) and the 10 μl reaction protocol is being followed. For measurement, the QuantStudio 12K Flex system is used. Raw data is extracted and IL-2 concentrations are calculated with the Thermo Fisher online app (apps.thermofisher.com/apps/proquantum).
ELISA is done following the manufacturer's manual (Thermo Fisher Scientific, #88-7025-88).
Additional information: For the ELISA Nunc MaxiSorp 96 well plates are used. Frozen supernatant is thawed and centrifuged for 5 minutes at 1000×g, both steps at 4° C. After that, required sample amount is taken from the top, and in a separate V-bottom plate diluted with ELISA diluent, dilution factor depending on the PBS or CD3 condition. […]

[3] = Homo sapiens, T-cell, CD3 condition, 24 hours, 20 μM reference compound A1 = 100%, DMSO neutral control

2-methyl-2-[5-[(3S)-3-amino-5,5,7-trifluoro-2-oxo-1-[[4-(trifluoromethoxy)phenyl]methyl]-3,4-dihydro-1-benzazepin-8-yl]-1,3,4-oxadiazol-2-yl]propanenitrile and 2-methyl-2-[5-[(3R)-3-amino-5,5,7-trifluoro-2-oxo-1-[[4-(trifluoromethoxy)phenyl]methyl]-3,4-dihydro-1-benzazepin-8-yl]-1,3,4-oxadiazol-2-yl]propanenitrile [Example 2]
IC50 [1]: 1810 nM | IC50 [2]: 1400 nM | EC50 (primary human T-cells): 827 nM | Emax IL2 (% activation) (primary human T-cells; CD3 condition, 24 hours, 20 μM reference compound A1 = 100%, DMSO neutral control): 256 % activation

CC(C)(c1nnc(-c2cc3c(cc2F)C(F)(F)CC(N)C(=O)N3Cc2ccc(Oc3ccccc3)cc2)o1)S(C)(=O)=O (racemic) [Example 5, (3S)-3-amino-5,5,7-trifluoro-8-[5-(1-methyl-1-methylsulfonyl-ethyl)-1,3,4-oxadiazol-2-yl]-1-[(4-phenoxyphenyl)methyl]-3,4-dihydro-1-benzazepin-2-one and (3R)-3-amino-5,5,7-trifluoro-8-[5-(1-methyl-1-methylsulfonyl-ethyl)-1,3,4-oxadiazol-2-yl]-1-[(4-phenoxyphenyl)methyl]-3,4-dihydro-1-benzazepin-2-one]
IC50 [1]: 2400 nM | IC50 [2]: 16900 nM | EC50 (primary human T-cells; Homo sapiens, T-cell): 2330 nM | Emax (primary human T-cells; [3]): 165%

CC(C)(C#N)c1nnc(-c2cc3c(cc2F)C(F)(F)CC(N)C(=O)N3Cc2ccc(-n3cc(C(F)(F)F)cn3)cc2)o1 (racemic) [Example 33, 2-[5-[(3S)-3-amino-5,5,7-trifluoro-2-oxo-1-[[4-[4-(trifluoromethyl)pyrazol-1-yl]phenyl]methyl]-3,4-dihydro-1-benzazepin-8-yl]-1,3,4-oxadiazol-2-yl]-2-methyl-propanenitrile and 2-[5-[(3R)-3-amino-5,5,7-trifluoro-2-oxo-1-[[4-[4-(trifluoromethyl)pyrazol-1-yl]phenyl]methyl]-3,4-dihydro-1-benzazepin-8-yl]-1,3,4-oxadiazol-2-yl]-2-methyl-propanenitrile]
IC50 [1]: 1680 nM | IC50 [2]: 2370 nM | EC50 (primary human T-cells; Homo sapiens, T-cell): 237 nM | Emax (primary human T-cells; [3]): 62%

COC(F)(c1nnc(-c2cc3c(cc2F)C(F)(F)C[C@H](N)C(=O)N3Cc2ccc(OC(F)(F)F)cc2)o1)C(F)(F)F (single isomer, unassigned) [Example 4]
IC50 [1]: 8930 nM | IC50 [2]: 4370 nM | EC50 (primary human T-cells; Homo sapiens, T-cell): 821 nM | Emax (primary human T-cells; [3]): 91%

CC(C)(C)c1nnc(-c2cc3c(cc2F)C(F)(F)C[C@@H](N)C(=O)N3Cc2ccc(OC3CCCC3)cc2)o1 (single isomer, unassigned) [Example 7]
IC50 [1]: 1730 nM | IC50 [2]: 9640 nM | EC50 (primary human T-cells; Homo sapiens, T-cell): 280 nM | Emax (primary human T-cells; [3]): 94%

CC(C)(c1nnc(-c2cc3c(cc2F)C(F)(F)C[C@@H](N)C(=O)N3Cc2ccc(-c3ccc(C(F)(F)F)cn3)cc2)o1)S(C)(=O)=O (single isomer, unassigned) [Example 8]
IC50 [1]: 16100 nM | IC50 [2]: 5440 nM | EC50 (primary human T-cells; Homo sapiens, T-cell): 373 nM | Emax (primary human T-cells; [3]): 69%

COc1ccc(-c2ccc(CN3C(=O)[C@H](N)CC(F)(F)c4cc(F)c(-c5nnc(C(C)(C)C#N)o5)cc43)cc2)cc1 (single isomer, unassigned) [Example 9]
IC50 [1]: 2360 nM | IC50 [2]: 9920 nM | EC50 (primary human T-cells; Homo sapiens, T-cell): 370 nM | Emax (primary human T-cells; [3]): 133%

COc1ccc(-c2ccc(CN3C(=O)[C@H](N)CC(F)(F)c4cc(F)c(-c5nnc(C(C)(C)S(C)(=O)=O)o5)cc43)cc2)cc1 (single isomer, unassigned) [Example 10]
IC50 [1]: 11500 nM | IC50 [2]: 16200 nM | EC50 (primary human T-cells; Homo sapiens, T-cell): 378 nM | Emax (primary human T-cells; [3]): 57%

CC(C)(C#N)c1nnc(-c2cc3c(cc2F)C(F)(F)C[C@@H](N)C(=O)N3Cc2ccc(-c3ccc(C(F)(F)F)cn3)cc2)o1 (single isomer, unassigned) [Example 12]
IC50 [1]: 2900 nM | IC50 [2]: 24600 nM | EC50 (primary human T-cells; Homo sapiens, T-cell): 367 nM | Emax (primary human T-cells; [3]): 67%

CCN1CC(c2nnc(-c3cc4c(cc3F)C(F)(F)C[C@@H](N)C(=O)N4Cc3ccc(OC(F)(F)F)cc3)o2)CC(F)(F)C1 (single isomer, unassigned) [Example 13]
IC50 [1]: 2260 nM | IC50 [2]: 9250 nM | EC50 (primary human T-cells; Homo sapiens, T-cell): > 10000 nM | Emax (primary human T-cells; [3]): 58%

N[C@@H]1CC(F)(F)c2cc(F)c(-c3nnc(N4CCCC4)o3)cc2N(Cc2ccc(-c3noc(C(F)(F)F)n3)cc2)C1=O (single isomer, unassigned) [Example 14]
IC50 [1]: 17900 nM | IC50 [2]: > 62500 nM | EC50 (primary human T-cells; Homo sapiens, T-cell): 982 nM | Emax (primary human T-cells; [3]): 239%

N[C@@H]1CC(F)(F)c2cc(F)c(-c3nnc(N4CCC(F)(F)CC4)o3)cc2N(Cc2ccc(-c3noc(C(F)(F)F)n3)cc2)C1=O (single isomer, unassigned) [Example 15]
IC50 [1]: 1810 nM | IC50 [2]: 39600 nM | EC50 (primary human T-cells; Homo sapiens, T-cell): 1290 nM | Emax (primary human T-cells; [3]): 152%

CC(C)(c1nnc(-c2cc3c(cc2F)C(F)(F)C[C@@H](N)C(=O)N3Cc2ccc(-c3noc(C(F)(F)F)n3)cc2)o1)S(C)(=O)=O (single isomer, unassigned) [Example 16]
IC50 [1]: 14900 nM | IC50 [2]: 13200 nM | EC50 (primary human T-cells; Homo sapiens, T-cell): 1460 nM | Emax (primary human T-cells; [3]): 183%

N[C@@H]1CC(F)(F)c2cc(F)c(-c3nnc(N4CCOC5(CC5)C4)o3)cc2N(Cc2ccc(-c3noc(C(F)(F)F)n3)cc2)C1=O (single isomer, unassigned) [Example 17]
IC50 [1]: 3250 nM | IC50 [2]: > 62500 nM | EC50 (primary human T-cells; Homo sapiens, T-cell): 3790 nM | Emax (primary human T-cells; [3]): 107%

CC(C)(C#N)c1nnc(-c2cc3c(cc2F)C(F)(F)C[C@@H](N)C(=O)N3Cc2ccc(-c3ncc(C(F)(F)F)cc3F)cc2)o1 (single isomer, unassigned) [Example 19]
IC50 [1]: 7240 nM | IC50 [2]: 41600 nM | EC50 (primary human T-cells; Homo sapiens, T-cell): > 2730 nM | Emax (primary human T-cells; [3]): 63%
